Results from patent US5916906A, “Compositions comprising nicotinylalanine and an inhibitor of glycine conjugation or vitamin B6” (priority 1997, dated 1999).
Where “and” joins values, the source holds several entries; their conditions need not be identical. Equal values may be shown once.

How the values were obtained:
Assay type in all cases: in vivo, C57BL/6 mice
[1] = tested on: LP-BM5 MuLV Retrovirus; assay: MAIDS model, interim sacrifices: body weight, disease score, spleen weight; details: for Body Wt. / Spleen Wt.: individual mouse; for Disease Score: scores 0 through +4, individual mouse
Method: This study was designed to determine whether nicotinylalanine (NAL) alone or in combination with acetylsalicylic acid (ASA) will prevent or alter the course of murine retroviral-induced immunodeficiency disease, MAIDS, in C57BL/6 female mice. The LP-BM5 MuLV virus used for these studies was prepared from chronically infected SC-1 cells (ATCC Cat. No. CRL-1404), as described by Yetter R. A. et al., J. Exp. Med., 168, 623-635, 1988. […] The MAIDS model is well characterized and reproducible in the laboratory, as described by Mosier D. E. et al., J. Exp. Med. 161, 766-784, 1985.
Measures of disease progression followed the methods developed by Eiseman et al., 1991 (Ibid). Disease scores 0 through +4 are based upon body weight gain and palpable alterations in the size of lymph nodes and spleen. Severity of disease is scored as follows: 0.5, increased body weight and variably detected increase in size of any one lymph node or spleen; +1, clearly detectable increase in the size of a lymph node and spleen; +2, readily detectable (greater than 0.3 cm in diameter) increased size in more than one lymph node and, in particular, enlargement of subcervical, brachial or axillary nodes; +3, increased size of all palpable nodes and palpable splenomegaly (≥0.3 grams); +4, advanced disease with extensive splenomegaly (>1.0 grams) and lymphadenopathy.
Specific pathogen free, female C57BL/6 mice (5 weeks of age) were purchased from Charles River Breeding Laboratories. All mice were allowed one week to acclimate to housing facilities prior to randomization for study. Animals were marked for identification and placed in microisolator cages with identifying cards (5 mice/cage), where autoclaved food and water were provided ad libitum.
NAL and ASA were formulated under sterile conditions according to preformulation methods outlined in Remington's Pharmaceutical Sciences Handbook, 18th Edition, 1990, ibid). NAL and ASA were dissolved in sterile phosphate-buffered normal saline solution (i.e., vehicle; Biofluids Inc., Lot 413054), adjusted to between pH 7.2 to 7.4 with […], sterilized by filtration through 0.2 μm bottle-type filters, and dispersed into sterile glass vials, sealed and capped (Wheaton Inc.).
Except for Group 6 (which began treatment 2 weeks after virus inoculation),test drug injections began 1 day after virus infection and continued every day except weekends (i.e., 5 times per week).
(§1) Disease progression was monitored by measuring serum IgM levels by ELISA on all animals at monthly intervals during the course of disease. Three mice per group were randomly selected and sacrificed at monthly intervals (end of month one through four) of the study. Disease scores for each animal were recorded weekly based upon palpation of lymph nodes and spleen. Complete gross necropsies were performed on these euthanized animals and the ratio of recorded spleen to body weights was an additional indicator of diseases progression. […] Infection was quantified by ecotropic virus XC plaque assays of spleens removed from the interim sacrificed animals.

[2] = tested on: LP-BM5 Retrovirus; assay: Ecotropic virus XC plaque assay on spleen cells of treated LP-BM5 infected mice; details: for Virus titer, plaques per million spleen cells: four months after inoculation, mean ± standard deviation, NAL 400 mg/kg
Source text: FIG. 4A and 4B: Mean Number of Virus Particles as Determined from Plaques per Million Spleen Cells from Serially Sacrificed Mice at Monthly Intervals After Inoculation with LP-BM5 Retrovirus. […] Each ml of the virus pool contained 3.66 log PFU ecotropic virus as determined by XC Plaque Assay. Treatment in all groups began one day after virus inoculation, except for the NAL 400 Delay Group which began treatment two weeks after virus inoculation. Groups and treatments are as follows:
FIG. 4B: LP-BM5+PBS=as described above; NAL 400=virus positive, plus daily (M-F) i.p. injections of nicotinylalanine (400 mg/kg) only; NAL 400 delay=nicotinylalanine (400 mg/kg) only, injected i.p. daily (M-F) beginning two weeks after virus inoculation.
Ecotropic virus titers were determined using the XC plaque assay (Yetter R. A. et al., J. Exp. Med., 168, 623-635, 1988) and were performed on spleen cells cultured from all serially killed mice at the interim sacrifices as shown in Tables 2-A & 2-B). Spleens were weighed and cells were extruded with sterile media (RPMI 1640, with gentamycin and 10% fetal calf serum). Serial 10-fold dilutions were made and one ml of each dilution was overlayered onto a monolayer of SC-1 cells treated with 4 μg/ml polybrene. After 24 hours, the media was removed and washed and the SC-1 cells were fed with fresh media. When the monolayer was confluent, the plates were irradiated with UV light at 60 ergs/mm^2 /sec and overlayered with XC cells. When the XC cell layer was confluent, the plates were fixed with methanol and stained with Giemsa Stain. Plaques were counted on an Artek colony counter and confirmed by phase contrast microscopy. Values presented in FIG. 4A represent the mean of adjusted samples at three dilutions expressed as plaques per million spleen cells. Mean and standard deviations corresponding to each of the data points in FIGS. 4A and 4B are derived from three mice serially killed at interim sacrifice times.

[3] = Hematocrit of LP-BM5 infected mice (hematopoietic toxicity); details: for Mean Hematocrit: virus-positive, NAL 400 mg/kg, ASA 20 mg/kg, AZT printed 1 mg/kg
Method: as §1, with “animals. The study was to be terminated when mice were either dead or disease scores were +4 in more than 50% of the vehicle-treated MAIDS controls (Group 1), which occurred at 19 weeks post-inoculation of the virus pool. However, as the remaining mice in Group 1 were slow to progress towards more severe disease (FIG. 5) or death (FIG. 6), the study was extended until a termination date of 28 weeks post-inoculation.” for “animals.”
Mice were maintained through the fifth month post virus inoculation until

[4] = 1 month postinoculation, NAL 200 mg/kg i.p. (no ASA)
[5] = 1 month postinoculation, NAL 400 mg/kg i.p., delayed Rx 2 weeks
[6] = 1 month postinoculation, treatment from day 1: NAL 400 mg/kg i.p., ASA 20 mg/kg i.p., AZT 1 mg/ml in drink water
[7] = 2 months postinoculation, NAL 200 mg/kg i.p. (no ASA)
[8] = 2 months postinoculation, NAL 400 mg/kg i.p., delayed Rx 2 weeks
[9] = 2 months postinoculation, treatment from day 1: NAL 400 mg/kg i.p., ASA 20 mg/kg i.p., AZT 1 mg/ml in drink water
[10] = 3 months postinoculation, NAL 400 mg/kg i.p., delayed Rx 2 weeks
[11] = 3 months postinoculation, treatment from day 1: NAL 400 mg/kg i.p., ASA 20 mg/kg i.p., AZT 1 mg/ml in drink water
[12] = 4 months postinoculation, NAL 400 mg/kg i.p., delayed Rx 2 weeks
[13] = 4 months postinoculation, treatment from day 1: NAL 400 mg/kg i.p., ASA 20 mg/kg i.p., AZT 1 mg/ml in drink water

## NC(CC(=O)c1cccnc1)C(=O)O (racemic) [NAL, γ-(3-pyridyl)-γ-oxo-α-aminobutyrate]
[1]; [4]
  Body Wt.: 21.9 Grams and 21.8 Grams and 23.4 Grams
  Spleen Wt.: 0.080 Grams and 0.257 Grams and 0.123 Grams
  Disease Score: 0 and 1 and 0.5
[1]; [5]
  Body Wt.: 20.4 Grams and 20.5 Grams and 22.3 Grams
  Spleen Wt.: 0.103 Grams and 0.151 Grams and 0.136 Grams
  Disease Score: 0 and 0.5
[1]; [6]
  Body Wt.: 21.3 Grams and 20.4 Grams and 19.6 Grams
  Spleen Wt.: 0.186 Grams and 0.309 Grams and 0.159 Grams
  Disease Score: 1
[1]; [7]
  Body Wt.: 22.5 Grams and 23.8 Grams and 22.2 Grams
  Spleen Wt.: 0.229 Grams and 0.098 Grams and 0.302 Grams
  Disease Score: 1 and 0.5 and 2
[1]; [8]
  Body Wt.: 21.2 Grams and 20.0 Grams and 26.6 Grams
  Spleen Wt.: 0.168 Grams and 0.086 Grams and 0.320 Grams
  Disease Score: 1 and 0 and 2
[1]; [9]
  Body Wt.: 21.6 Grams and 24.0 Grams
  Spleen Wt.: 0.289 Grams and 0.216 Grams and 0.125 Grams
  Disease Score: 1 and 2
[1]; [10]
  Body Wt.: 23.8 Grams and 25.3 Grams and 26.3 Grams
  Spleen Wt.: 0.090 Grams and 0.112 Grams and 0.175 Grams
  Disease Score: 0 and 0.5 and 1
[1]; [11]
  Body Wt.: 23.6 Grams and 22.3 Grams and 24.6 Grams
  Spleen Wt.: 0.112 Grams and 0.341 Grams and 0.086 Grams
  Disease Score: 0.5 and 2
[1]; [12]
  Body Wt.: 26.8 Grams and 27.5 Grams and 24.5 Grams
  Spleen Wt.: 0.399 Grams and 0.157 Grams and 0.083 Grams
  Disease Score: 3 and 1 and 0.5
[1]; [13]
  Body Wt.: 27.6 Grams and 28.0 Grams and 25.5 Grams
  Spleen Wt.: 0.119 Grams and 1.030 Grams and 0.240 Grams
  Disease Score: 0.5 and 4 and 2
[2]; ASA 20 mg/kg, AZT 1 mg/mL
  Virus titer, plaques per million spleen cells: 3,410±4,606 plaques per million spleen cells
[2]; delayed two weeks
  Virus titer, plaques per million spleen cells: 796±463 plaques per million spleen cells
[3]; mouse, in vivo
  Effect on decreased hematocrit (in words): protective effect

## Cc1cn([C@H]2C[C@H](N=[N+]=[N-])[C@@H](CO)O2)c(=O)[nH]c1=O [AZT, 3'azido-3'deoxythymidine, reference compound]
[1]; [6]
  Body Wt.: 21.1 Grams and 20.9 Grams and 19.6 Grams
  Spleen Wt.: 0.097 Grams and 0.108 Grams and 0.096 Grams
  Disease Score: 0 and 0.5
[1]; [9]
  Body Wt.: 20.9 Grams and 20.0 Grams and 22.6 Grams
  Spleen Wt.: 0.090 Grams and 0.104 Grams and 0.086 Grams
  Disease Score: 0
[1]; [11]
  Body Wt.: 23.8 Grams and 23.5 Grams and 25.4 Grams
  Spleen Wt.: 0.118 Grams and 0.114 Grams and 0.112 Grams
  Disease Score: 0.5
[1]; [13]
  Body Wt.: 25.0 Grams and 21.1 Grams and 28.6 Grams
  Spleen Wt.: 0.262 Grams and 0.086 Grams and 0.150 Grams
  Disease Score: 2 and 0 and 1
[2]; ASA 20 mg/kg, AZT 1 mg/mL
  Virus titer, plaques per million spleen cells: 333±495 plaques per million spleen cells
[2]; four months, AZT with or without 400 mg/kg NAL
  Mice with detectable virus (plaques) in spleens: two of the mice
[3]; Month 1 (10 bled)
  Mean Hematocrit: 41.7 ± 4.0%
[3]; Month 2 (10 bled)
  Mean Hematocrit: 42.7 ± 2.4%
[3]; Month 3 (7 bled)
  Mean Hematocrit: 41.9 ± 1.7%
[3]; Month 4 (11 bled)
  Mean Hematocrit: 42.6 ± 3.0%
[3]; NAL plus AZT (Group 5), AZT alone (Group 7)
  Mean hematocrit over the four months sampled: ~42.6%
[3]; one-month interim assessment, AZT in drinking water
  Hematopoietic toxicity: hematopoietic toxicity was already manifest
